The text below walks through data of patent publication US8859491B2 (priority 2011, dated 2014).

Non-standard residues stand in square brackets, D forms with d. No end group written: not given here. *: point of attachment. β‑estradiol 3‑ether = C[C@]12CC[C@@H]3c4ccc(O*)cc4CC[C@H]3[C@@H]1CC[C@@H]2O; Aib = CC(C)(N)C(=O)O

The target of one test is T1, glucocorticoid receptor (Homo sapiens, UniProt P04150).
T1 construct: two clones of HeLa cells (ATCC #CCL-2) transfected with murine mammary tumor virus long terminal repeat-driven firefly luciferase; host or cells: HeLa
T1 sequence (P04150 1-777): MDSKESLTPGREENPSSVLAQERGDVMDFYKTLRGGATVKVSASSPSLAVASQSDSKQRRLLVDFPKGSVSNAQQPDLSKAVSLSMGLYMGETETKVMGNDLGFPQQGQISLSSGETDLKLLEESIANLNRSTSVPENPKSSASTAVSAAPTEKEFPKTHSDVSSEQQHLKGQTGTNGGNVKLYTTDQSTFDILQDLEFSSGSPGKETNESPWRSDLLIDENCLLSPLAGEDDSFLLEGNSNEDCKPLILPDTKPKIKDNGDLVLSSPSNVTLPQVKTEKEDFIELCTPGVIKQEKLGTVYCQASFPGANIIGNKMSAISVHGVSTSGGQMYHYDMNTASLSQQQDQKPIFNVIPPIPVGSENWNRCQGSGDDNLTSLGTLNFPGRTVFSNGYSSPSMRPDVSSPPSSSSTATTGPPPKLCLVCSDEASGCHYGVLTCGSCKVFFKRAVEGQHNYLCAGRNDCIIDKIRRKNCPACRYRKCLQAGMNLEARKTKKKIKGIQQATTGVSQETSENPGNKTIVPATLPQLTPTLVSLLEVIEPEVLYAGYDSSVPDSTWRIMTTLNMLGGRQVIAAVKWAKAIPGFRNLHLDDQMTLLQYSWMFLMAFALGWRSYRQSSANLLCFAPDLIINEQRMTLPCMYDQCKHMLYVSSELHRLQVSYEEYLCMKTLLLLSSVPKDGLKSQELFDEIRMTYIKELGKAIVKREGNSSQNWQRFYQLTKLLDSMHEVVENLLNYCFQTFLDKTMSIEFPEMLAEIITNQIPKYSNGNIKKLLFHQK
The test can be described thus: Glucocorticoid receptor luciferase reporter gene assay in HeLa cell clones (MMTV-LTR luciferase). It is filed as cell-based. The note with it: Example 37; two HeLa reporter clones; compared with unconjugated dexamethasone. On the procedure: The activities of the peptide conjugates in Examples 32 and 33 at the glucocorticoid receptor were tested in the luciferase reporter gene assay using two clones of HeLa cells (ATCC #CCL-2) transfected with murine mammary tumor virus long terminal repeat-driven firefly luciferase.

Test [1] in a line: Example 17: DIO mice, 40 μg/kg sc daily for one week. It is filed as in vivo. The settings on record: between days 0 and 7. Here is the method: Diet-induced obesity (DIO) mice (N=8, average initial body weight=65 g) were subcutaneously injected once per day for one week with vehicle or 40 μg/kg one of the following:
Body weight was measured after 7 days and the change in body weight and the fat mass were determined (FIG. 6a-b). […] The analysis of fat mass (FIG. 6b) was relatively constant with total loss in body weight.

Test [2] in a line: Example 29: DIO mice, 400 μg/kg sc daily for seven days. It is filed as in vivo.
Test [3] in a line: Example 25: ovariectomized C57BI/6 mice, 4000 μg/kg sc daily for 7 days. It is filed as in vivo.
A short description of test [4]: Example 27: DIO mice, sc daily for two weeks. It is filed as in vivo. On the procedure: Diet induced obesity mice were administered subcutaneous injections once per day for two weeks with vehicle or 40 or 400 μg/kg of one of the following: […]
The nature of test [5]: Administration of GLP-1 conjugates to ovariectomized mice (FIGS. 13, 14). Type of test: in vivo.
Test [6] in a line: Administration of GLP-1 conjugates to mice, model not stated (FIGS. 15, 19). Type of test: in vivo. The note with it: vs GLP-1 agonist alone or GLP-1 agonist/Estrogen(3-ester) conjugate.
A short description of test [7]: Example 30: DIO wild type, ERβ KO and ERα KO mice, 400 μg/kg sc daily for two weeks. It is filed as in vivo.
Description: Diet-induced obesity wild type mice, estrogen receptor beta knock-out (ERβ KO) mice, and estrogen receptor alpha knock-out (ERα KO) mice were administered subcutaneous injections once per day for two weeks with vehicle or 400 μg/kg of one of the following:
Test [8] addresses T2, GLP-1 receptor (Homo sapiens, UniProt P43220).
T2 construct: expressed in transfected cells; host or cells: HEK293
The experiment in a line: cAMP induction, firefly luciferase reporter assay in HEK293 cells, GLP-1 receptor. It is filed as cell-based. The settings on record: GLP-1 receptor versus glucagon receptor. On the procedure: The ability of each peptide to induce cAMP was measured in a firefly luciferase-based reporter assay. […] HEK293 cells co-transfected with the receptor and luciferase gene linked to a cAMP responsive element were employed for the bioassay.
At the end of the incubation, 100 μL of LucLite luminescence substrate reagent (Perkin Elmer, Wellesley, Mass.) were added to each well. […] All EC50s and IC50s are reported in the following examples in nM, unless indicated otherwise.
Background: In a reporter assay the amount or activity of a reporter protein is the signal.

Test [9] is described as follows: Example 16: mice on diabetic diet for 9 months, sc dosing. It is filed as in vivo. The settings on record: low daily dose, 7 days.
The target of test [10] is T2, GLP-1 receptor. The experiment in a line: GLP-1 Activity (cAMP induction), CRE-luciferase reporter in HEK293 cells. Type of test: cell-based. On the procedure: (§1) Luminescence was measured after cell lysis and incubation with luciferin.
as §1, §1

For test [11], the target named is T2, GLP-1 receptor. The test can be described thus: GLP-1 Binding, [I125]-GLP-1 SPA with receptor membrane extracts.
Test [12] in a line: Example 19: mice, sc daily for one week. It is filed as in vivo. The settings on record: between days 0 and 7. On the procedure: Mice (N=8, average body weight 55 g) were administered subcutaneous injections once per day for one week with vehicle or one of the following:
Body weight was measured after 7 days and the change in body weight was determined (FIG. 8a). There was little apparent difference in body weight lowering at these doses for the peptides with and without the estrogen.

Test [13] is described as follows: Example 20: DIO mice, sc daily. It is filed as in vivo. The note with it: 7 days. Here is the method: Diet induced obesity mice (DIO) (N=8, average body weight 61 g) were administered subcutaneous injections once per day for one or two weeks with vehicle or 40, 400, 1200, or 4000 μg/kg of one of the following: […]
A short description of test [14]: Example 21: mice on diabetic diet, sc daily for one week. The settings on record: between days 0 and 7. Type of test: in vivo.

T2 sequence (P43220 24-463, species assumed): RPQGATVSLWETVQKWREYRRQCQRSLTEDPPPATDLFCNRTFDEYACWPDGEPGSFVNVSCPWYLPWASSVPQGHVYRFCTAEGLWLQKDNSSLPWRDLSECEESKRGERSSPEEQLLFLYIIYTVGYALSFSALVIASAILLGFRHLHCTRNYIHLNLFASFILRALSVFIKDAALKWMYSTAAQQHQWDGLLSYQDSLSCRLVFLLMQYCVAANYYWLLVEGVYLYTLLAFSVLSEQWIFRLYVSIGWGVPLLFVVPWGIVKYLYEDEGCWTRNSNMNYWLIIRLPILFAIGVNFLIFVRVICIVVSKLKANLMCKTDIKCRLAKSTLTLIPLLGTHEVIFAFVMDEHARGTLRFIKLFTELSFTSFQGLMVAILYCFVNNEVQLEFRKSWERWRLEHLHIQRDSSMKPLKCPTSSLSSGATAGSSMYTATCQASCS

Regarding [Aib2, E16]GLP-1-CEX-Lys40(NHCO—O-DEX), at glucocorticoid receptor, the “agonist activity at the glucocorticoid receptor” value is “retained the greatest amount of activity at the glucocorticoid receptor”.

As for “GLP-1(Aib^2E^16Cex K^40)/Estrogen(17-ester): E16 GLP-1 analog conjugated to estrogen by 17-ester (H[Aib]EGTFTSDVSSYLEEQAAKEFIAWLVKGGPSSGAPPPSK-NH2; not fully specified (residue 40))”, in test [1], the “change in blood glucose” value is listed as “greatest change in blood glucose”.

Consider “GLP-1 agonist/Estrogen(3-ether): active, estrogen-stable GLP-1 agonist/Estrogen(3-ether) conjugate (H[Aib]EGTFTSDVSSYLEEQAAKEFIAWLVKGGPSSGAPPPSK(β‑estradiol 3‑ether)-NH2)”, for which the “change in body weight” value is listed as “greatest decrease in body weight” in test [2] (after 7 days); “greater decrease in body weight” in [3] (4000 μg/kg, after 7 days); “significantly greater decrease in body weight” in [4] (40 or 400 μg/kg, after 15 days); “greater decrease” in [5] (vs GLP-1 agonist alone and the inactive d-amino acid conjugates, FIG. 13a); “significantly greater decrease” in test [6] (FIG. 15a). Also, the “change in blood glucose” value in test [2] (over 7 days) was “decrease in blood glucose levels over 7 days, with the decrease greater in mice that were administered the conjugate”; in [3] (4000 μg/kg) it was “decrease in blood glucose levels greater than vehicle”. Besides, the fat mass result in test [3] (4000 μg/kg) and in test [5] (FIG. 13b) was “decrease in fat mass” throughout. In addition, the cumulative food intake entry was “consumed less food” in [3] (7 days), “consumed significantly less food” in [4] (15 days), “significantly less food” in test [6] (FIG. 15b) and “consumed the least amount of food” in test [7] (knock-out mice). The blood glucose levels entry in [5] (FIG. 13d) is on record as “decrease in blood glucose levels greater than vehicle”. Further, the food intake entry in [5] (vs GLP-1 agonist alone and the inactive d-amino acid conjugates, FIG. 13c) is given as “consumed less food”. Besides, the “decrease in body weight” value in test [7] (ERα KO mice, two weeks) is approximately 20%; in [7] (ERβ KO mice, two weeks), approximately 15%; in test [7] (wild type DIO mice, two week period), approximately 10%.

Regarding “SEQ ID NO: 22: glucagon analog generated by substituting the native glutamine at position 3 with glutamic acid”, the “selectivity for the GLP-1 receptor” value with GLP-1 receptor [8] was “approximately a tenfold selectivity”.

Take “GLP-1(Aib^2E^16C^24(PEG-40 kDa)Cex K^40): GLP-1 analog PEGylated (40 kDa) at Cys24 (H[Aib]EGTFTSDVSSYLEEQAAKEFIC(PEG 40 kDa thioether)WLVKGGPSSGAPPPSK-NH2)”: the cumulative food intake result in [9] is “consumed the least amount of food”.

As usually defined, the EC50 is the concentration that produces a half-maximal response. A higher EC50 goes with a less potent agent. As a reminder, the IC50 is the concentration needed to halve the response being measured. Low values mean higher potency, high ones lower potency. On GLP-1 receptor [10], `CC[C@H](C)[C@H](NC(=O)[C@H](Cc1ccccc1)NC(=O)[C@H](CCC(=O)O)NC(=O)[C@H](CCCCN)NC(=O)[C@H](C)NC(=O)[C@H](C)NC(=O)[C@H](CCC(N)=O)NC(=O)[C@H](CCC(=O)O)NC(=O)[C@H](CCC(=O)O)NC(=O)[C@H](CC(C)C)NC(=O)[C@H](Cc1ccc(O)cc1)NC(=O)[C@H](CO)NC(=O)[C@H](CO)NC(=O)[C@@H](NC(=O)[C@H](CC(=O)O)NC(=O)[C@H](CO)NC(=O)[C@@H](NC(=O)[C@H](Cc1ccccc1)NC(=O)[C@@H](NC(=O)CNC(=O)[C@H](CCC(=O)O)NC(=O)C(C)(C)NC(=O)[C@@H](N)Cc1c[nH]cn1)[C@@H](C)O)[C@@H](C)O)C(C)C)C(=O)N[C@@H](C)C(=O)N[C@@H](Cc1c[nH]c2ccccc12)C(=O)N[C@@H](CC(C)C)C(=O)N[C@H](C(=O)N[C@@H](CCCCN)C(=O)NCC(=O)NCC(=O)N1CCC[C@H]1C(=O)N[C@@H](CO)C(=O)N[C@@H](CO)C(=O)NCC(=O)N[C@@H](C)C(=O)N1CCC[C@H]1C(=O)N1CCC[C@H]1C(=O)N1CCC[C@H]1C(=O)N[C@@H](CO)C(=O)N[C@@H](CCCCNC(=O)COc1ccc2c(c1)CC[C@@H]1[C@@H]2CC[C@]2(C)[C@@H](O)CC[C@@H]12)C(N)=O)C(C)C` [GLP-1/Estrogen(3-ether)] showed an EC50 of 12 ± 3 pM. In addition, the IC50 at GLP-1 receptor [11] is 717 ± 135 pM.

Turning to “GLP-1(Aib^2E^16Cex K^40)/Estrogen(3-ester): E16 GLP-1 analog conjugated to estrogen by 3-ester (H[Aib]EGTFTSDVSSYLEEQAAKEFIAWLVKGGPSSGAPPPSK-NH2; not fully specified (residue 40))”, the “change in blood glucose levels” value in test [12] is “greatest change in blood glucose levels”. Besides, the cumulative food intake result in test [13] was “consumed significantly less food than mice that were administered GLP-1 alone”.

Turning to “SEQ ID NO: 1659: GLP-1 based glucagon superfamily peptide conjugated to estradiol or estrone through a hydrolyzable linkage ([dA][Aib][dE]G[dT][dF][dT][dS][dD][dV][dS][dS][dY][dL][dE]G[dQ][dA][dA][dK][dE][dA][dI][dA][dW][dL][dV][dK]GG[dP][dS][dS]G[dA][dP][dP][dP][dS]K-NH2; not fully specified (residue 40))”, the “change in blood glucose levels” value in [14] is “greater change in blood glucose levels”.
